Values joined by “and” are separate entries in the source; they are usually repeats but may differ in a detail not shown here. Equal entries are not always repeated.
What was measured:
Format in all cases: cell-based, Ostrinia nubilalis
[1] = system: chimeric Ecdysone receptor: maize C1 transactivation domain, Gal4 DNA binding domain, ligand-binding domain of the Ecdysone receptor (PHP10512); test: Stable transactivation assay, GAL4-responsive luciferase reporter PHP1654, leaf punches of T0 maize plants, PHP10512; settings: 10 μM RH5992 in H2O, 16 hours; plasmid PHP10512, event 78; individual T0 plant; 20 μl of 200 μl extract
Protocol: (§1) To further examine the effect of the Ecdysone receptors on promoter-driven expression, a stable transactivation assay was performed using a chimeric Ecdysone receptor. DNA constructs were generated for the expression of both effector and reporter DNA sequences.
(§2) A reporter plasmid, designated PHP1654, was constructed in the pSP72 vector and contained 5 GAL4 responsive elements, a minimal CaMV-59 constitutive promoter, the Omega' leader sequence, Adh intron 1, the coding sequence for firefly Luciferase, and the PinII terminator sequences.
Two DNA constructions encoding chimeric Ecdysone receptor proteins were generated. The chimeric Ecdysone receptor construct designated PHP10512 contains the Nopaline synthase (NOS) promoter, the Omegá leader sequence, Adh1 intron, 355 promoter, PAT gene and the potato protease inhibitor II (PinII) termination sequences cloned into a pUC vector. A fragment encoding a fusion between the maize C1 transactivation domain, the Gal4 DNA binding domain, and the ligand-binding domain of the Ecdysone receptor was cloned downstream of the intron.
Immature embryos approximately 1.5 to 2.0 mm long from the Hi-II genotype (Armstrong and Phillips (1988) Crop Sci. 28:363–369) were bombarded with the PHP1654 reporter plasmid and either PHP10513 or PHP10512. As noted above, a selectable marker gene, PAT, was contained on PHP10513 and PHP10512. […]

[2] = system: chimeric Ecdysone receptor: VP16 activation domain, Gal4 DNA binding domain, ligand-binding domain of the Ecdysone receptor (PHP10513); test: Stable transactivation assay, GAL4-responsive luciferase reporter PHP1654, leaf punches of T0 maize plants, PHP10513; settings: 10 μM RH5992 in H2O, 16 hours, individual T0 plant, 20 μl of 200 μl extract
Protocol: as §1, §2
The plasmid designated PHP10513 also contains the Nopaline synthase (NOS) promoter, the Omegá leader sequence, Adh1 intron, 355 promoter, PAT gene, and the potato protease inhibitor II (PinII) termination sequences cloned into a pUC vector. However, the fragment encoding the chimeric receptor immediately downstream of the intron, comprises a fusion between the VP16 activation domain, the Gal4 DNA binding domain, and the ligand-binding domain of the Ecdysone receptor.
Immature embryos approximately 1.5 to 2.0 mm long from the Hi-II genotype (Armstrong and Phillips (1988) Crop Sci. 28:363–369) were bombarded with the PHP1654 reporter plasmid and either PHP10513 or PHP10512. As noted above, a selectable marker gene, PAT, was contained on PHP10513 and PHP10512. The PAT gene confers resistance to the herbicide Bialophos. (Wohlleben et al. (1988) Gene 70:25–37.)
Embryos were bombarded using the protocols described in Tomes et al. (1994) Plant Cell, Tissue, and Organ culture, Fundamental Methods 197–213. Specifically, the Hi-II immature embryos were bombarded and cultured on selection medium as described by Songstad et al. 1993 Agronomy Abstracts 183. Plant regeneration from transgenic calli was performed according to the protocol of Armstrong and Phillips (1988) Crop Sci 28:363–369, except that bialaphos (3 mg/l) was added to each of the regeneration media. Plants were established in the greenhouse.
The transactivation of the luciferase reporter sequence by a chimeric Ecdysone receptor was assayed using standard protocols. […]

[3] = system: C1::LexA::ecdysone fusion protein (plasmid PHP10956; ligand-binding domain of the Ecdysone receptor)
Text: (§3) To examine the effect of the Ecdysone and USP receptors on promoter-driven expression, a transient transactivation assay was developed using a cell suspension culture derived from maize embryos. (See also, U.S. Pat. No. 5,886,244.) A reporter plasmid, designated PHP11545, was constructed in the pSP72 vector and contained 8 LexA operators, a minimal fragment of the CaMV-59 constitutive promoter, the Omega leader sequence, Adh intron 1, the coding sequence for firefly luciferase, and the PinII terminator sequences.
(§4) Two DNA constructs encoding effector proteins were generated. A chimeric Ecdysone receptor construct designated PHP10956 was generated. PHP10956 contains the Nopaline synthase (NOS) promoter, the Omega leader sequence, Adh1 intron, and the potato protease inhibitor II (PinII) termination sequences cloned into a pUC vector. A fragment encoding a fusion between the maize C1 transactivation domain, the LexA DNA binding domain, and the ligand-binding domain of the Ecdysone receptor was cloned downstream of the intron.
(§5) These constructs were introduced into embryogenic suspension cells by microprojectile bombardment as described by Unger et al. (1993) The Plant Cell 5:831–841. Plasmid DNA encoding effector and reporter sequences was mixed with 50 μl (15 mg/ml) of 1.0 μm tungsten microprojectiles. DNA was precipitated by addition of 50 μl 2.5 M CaCl2 and 20 μl 0.1M spermidine. Microprojectiles and precipitated DNA were centrifuged to a pellet and the supernatant was removed. The pellet was washed by sonication in the presence of 250 μl absolute ethanol, centrifuged and ethanol removed. Sixty μl of fresh absolute ethanol was added and this mixture sonicated to disperse the pellet. Ten μl aliquots of this microprojectile-DNA mixture were placed on each macrocarrier and bombarded into maize suspension cells using a helium-driven microprojectile gun, PDS-1000 (1100 psi rupture disk pressure). […]

[4] = system: USP receptor (plasmid PHP10967) and C1::LexA::ecdysone fusion protein (plasmid PHP10956); test: Transient transactivation assay, luciferase reporter PHP11545, maize embryogenic suspension cells, chimeric EcR plus USP (NosCLO/NosUSP)
Text: as §3, §4
A DNA construction containing the USP coding sequences was generated and designated PHP10967. PHP10967 contains the Nos promoter, the Omega leader sequence, Adh1 intron, and the PinII terminator sequences cloned into the pUC vector. The nucleic acid sequence encoding the USP coding region was inserted downstream of the intron.
as §5, with “pellet.” for “pellet. Ten μl aliquots of this microprojectile-DNA mixture were placed on each macrocarrier and bombarded into maize suspension cells using a helium-driven microprojectile gun, PDS-1000 (1100 psi rupture disk pressure).”

Compound: CCc1ccc(C(=O)NN(C(=O)c2cc(C)cc(C)c2)C(C)(C)C)cc1 [RH5992, 3,5-dimethylbenzoic acid 1—1 (1,1-dimethylethyl)-2(4-ethylbenzoyl)hydrazide]
- RH5992 treated (Light Units), luciferase activity [1]: 3771 Light Units and 1819 Light Units and 7742 Light Units and 1027 Light Units and 9742 Light Units and 2486 Light Units and 8494 Light Units and 3988 Light Units and 9265 Light Units and 6198 Light Units and 6293 Light Units and 1045 Light Units and 8354 Light Units and 4720 Light Units
- RH5992 treated (Light Units), luciferase activity ([2]; plasmid PH10513, event 30): 38093 Light Units and 26394 Light Units and 24632 Light Units and 33636 Light Units and 28213 Light Units and 22137 Light Units and 105341 Light Units and 44639 Light Units and 49279 Light Units and 83241 Light Units and 61320 Light Units and 130618 Light Units and 95166 Light Units and 35641 Light Units and 37955 Light Units and 38507 Light Units and 37855 Light Units and 42346 Light Units
- RH5992 treated (Light Units), luciferase activity ([2]; plasmid PHP10513, event 44): 605147 Light Units and 528950 Light Units and 303021 Light Units and 573842 Light Units and 417072 Light Units and 511220 Light Units and 290095 Light Units
- RH5992 treated (Light Units), luciferase activity ([2]; plasmid PHP10513, event 117): 90037 Light Units and 40005 Light Units and 149594 Light Units and 75379 Light Units and 49243 Light Units and 114913 Light Units and 57607 Light Units and 46075 Light Units
- Average Light Units (luciferase expression) ([3]; 10 μM RH5992, NosCLO only, effector dose 0.02 μg, 16 to 18 hours at 26° C., maize suspension cells): 153613 Light Units
- Fold Induction (luciferase) ([3]; 10 μM RH5992 vs no ligand, NosCLO only, 0.02 μg): 8.4x
- Transactivation of the LexA responsive luciferase reporter gene (in words) ([3]; in the presence of the RH5992 ligand, only C1::LexA::ecdysone fusion protein (PHP10956), no USP): resulted in the transactivation of the LexA responsive luciferase reporter gene
- Average Light Units (luciferase expression) ([4]; 10 μM RH5992, NosCLO/NosUSP, 0.02 μg each, 16 to 18 hours at 26° C., maize suspension cells): 201808 Light Units
- Fold Induction (luciferase) ([4]; 10 μM RH5992 vs no ligand, NosCLO/NosUSP, 0.02 μg each): 53x
- Transactivation of the LexA responsive luciferase reporter (PHP11545) ([4]; in the presence of the RH5992 ligand, USP (PHP10967) plus C1::LexA::ecdysone fusion (PHP10956)): 53 fold
